Assay results taken from US20220177508A1, “C10-Cyclic Substituted 13-Membered Macrolides and Uses Thereof” (Zikani Therapeutics, Inc., priority 2018, published 2022).
≈ marks a conversion by molar mass, not a printed value.

Key:
Type in all cases: cell-based
S. aureus MP-12 = assay: Broth dilution MIC determination (CLSI), S. aureus MP-12; conditions: Staphylococcus aureus, MP12; strain MP-12, broth dilution
E. coli MP-4 = assay: Broth dilution MIC determination (CLSI), E. coli MP-4; conditions: Escherichia coli, MP4; strain MP-4, broth dilution; read-out: MIC E. coli MP-4
K. pneumoniae MP-546 = assay: Broth dilution MIC determination (CLSI), K. pneumoniae MP-546; conditions: Klebsiella pneumoniae, MP546; strain MP-546, broth dilution
P. aeruginosa MP-3 = assay: Broth dilution MIC determination (CLSI), P. aeruginosa MP-3; conditions: Pseudomonas aeruginosa, MP3; strain MP-3, broth dilution
A. baumannii MP-15 = assay: Broth dilution MIC determination (CLSI), A. baumannii MP-15; conditions: Acinetobacter baumannii, MP15; strain MP-15, broth dilution; read-out: MIC A. baumanii MP-15

Structure (SMILES)	MIC (S. aureus MP-12) [µg/mL]	MIC (E. coli MP-4) [µg/mL]	MIC (K. pneumoniae MP-546) [µg/mL]	MIC (P. aeruginosa MP-3) [µg/mL]	MIC (A. baumannii MP-15) [µg/mL]
CO[C@]1(C)C[C@@H](C)CN(C)[C@H](C2CN(Cc3ccccc3)C2)COC(=O)C(C)(C)C(=O)[C@H](C)[C@H]1O[C@@H]1O[C@H](C)C[C@H](N(C)C)[C@H]1O [Compound 101, (3R,6R,8R,9R,10R)-3-(1-benzylazetidin-3-yl)-9-(((2S,3R,4S,6R)-4-(dimethylamino)-3-hydroxy-6-methyltetrahydro-2H-pyran-2-yl)oxy)-8-methoxy-4,6,8,10,12,12-hexamethyl-1-oxa-4-azacyclotridecane-11,13-dione]	4 to 32 (≈ 6.19 to 49.5 µM)	< 4	< 4	> 32	4 to 32 (≈ 6.19 to 49.5 µM)
CO[C@]1(C)C[C@@H](C)CN(C)[C@@H](C2CCCCC2)COC(=O)C(C)(C)C(=O)[C@H](C)[C@H]1O[C@@H]1O[C@H](C)C[C@H](N(C)C)[C@H]1O [Compound 102, (3S,6R,8R,9R,10R)-3-cyclohexyl-9-(((2S,3R,4S,6R)-4-(dimethylamino)-3-hydroxy-6-methyltetrahydro-2H-pyran-2-yl)oxy)-8-methoxy-4,6,8,10,12,12-hexamethyl-1-oxa-4-azacyclotridecane-11,13-dione]	> 32	> 32	> 32	> 32	> 32
CCCN1C[C@H](C)C[C@@](C)(OC)[C@H](O[C@@H]2O[C@H](C)C[C@H](N(C)C)[C@H]2O)[C@@H](C)C(=O)C(C)(C)C(=O)OC[C@H]1C1CN(CC(C)C)C1 [Compound 105, (3R,6R,8R,9R,10R)-9-(((2S,3R,4S,6R)-4-(dimethylamino)-3-hydroxy-6-methyltetrahydro-2H-pyran-2-yl)oxy)-3-(1-isobutylazetidin-3-yl)-8-methoxy-6,8,10,12,12-pentamethyl-4-propyl-1-oxa-4-azacyclotridecane-11,13-dione]	> 32	4 to 32 (≈ 6.25 to 50 µM)	> 32	> 32	> 32
CO[C@]1(C)C[C@@H](C)CN(C)[C@H]([C@@H]2CCCN2C)COC(=O)C(C)(C)C(=O)[C@H](C)[C@H]1O[C@@H]1O[C@H](C)C[C@H](N(C)C)[C@H]1O [Compound 106, (3R,6R,8R,9R,10R)-9-(((2S,3R,4S,6R)-4-(dimethylamino)-3-hydroxy-6-methyltetrahydro-2H-pyran-2-yl)oxy)-8-methoxy-4,6,8,10,12,12-hexamethyl-3-((S)-1-methylpyrrolidin-2-yl)-1-oxa-4-azacyclotridecane-11,13-dione]	> 32	> 32	> 32	> 32	> 32
CO[C@]1(C)C[C@@H](C)CN(C)[C@H](C2CCN(C(=O)CNCC(C)C)CC2)COC(=O)C(C)C(=O)[C@H](C)[C@H]1O[C@@H]1O[C@H](C)C[C@H](N(C)C)[C@H]1O (stereo partly drawn) [Compound 107, (3R,6R,8R,9R,10R)-9-(((2S,3R,4S,6R)-4-(dimethylamino)-3-hydroxy-6-methyltetrahydro-2H-pyran-2-yl)oxy)-3-(1-(isobutylglycyl)piperidin-4-yl)-8-methoxy-4,6,8,10,12-pentamethyl-1-oxa-4-azacyclotridecane-11,13-dione]	> 32	4 to 32 (≈ 5.86 to 46.9 µM)	4 to 32 (≈ 5.86 to 46.9 µM)	> 32	> 32
CO[C@]1(C)C[C@@H](C)CN(C(=O)OCc2ccccc2)[C@H](C2CCN(C(C)C)CC2)COC(=O)C(C)(C)C(=O)[C@H](C)[C@H]1O[C@@H]1O[C@H](C)C[C@H](N(C)C)[C@H]1O [Compound 118, Benzyl (3R,6R,8R,9R,10R)-9-(((2S,3R,4S,6R)-4-(dimethylamino)-3-hydroxy-6-methyltetrahydro-2H-pyran-2-yl)oxy)-3-(1-isopropylpiperidin-4-yl)-8-methoxy-6,8,10,12,12-pentamethyl-11,13-dioxo-1-oxa-4-azacyclotridecane-4-carboxylate]	> 32	> 32	> 32	> 32	> 32

Further lines, results first:

MIC (S. aureus MP-12) [µg/mL]	MIC (E. coli MP-4) [µg/mL]	MIC (K. pneumoniae MP-546) [µg/mL]	MIC (P. aeruginosa MP-3) [µg/mL]	MIC (A. baumannii MP-15) [µg/mL]	Structure (SMILES)
4 to 32 (≈ 6.39 to 51.1 µM)	< 4	4 to 32 (≈ 6.39 to 51.1 µM)	> 32	> 32	CO[C@]1(C)C[C@@H](C)CN(C)[C@H]([C@H]2CCCN(C(C)C)C2)COC(=O)C(C)(C)C(=O)[C@H](C)[C@H]1O[C@@H]1O[C@H](C)C[C@H](N(C)C)[C@H]1O [Compound 104, (3R,6R,8R,9R,10R)-9-(((2S,3R,4S,6R)-4-(dimethylamino)-3-hydroxy-6-methyltetrahydro-2H-pyran-2-yl)oxy)-3-((S)-1-isopropylpiperidin-3-yl)-8-methoxy-4,6,8,10,12,12-hexamethyl-1-oxa-4-azacyclotridecane-11,13-dione]
> 32	< 4	< 4	> 32	> 32	CO[C@]1(C)C[C@@H](C)CN(C)[C@@H]([C@@H]2CCN(C)C2)COC(=O)C(C)(C)C(=O)[C@H](C)[C@H]1O[C@@H]1O[C@H](C)C[C@H](N(C)C)[C@H]1O [Compound 109, (3S,6R,8R,9R,10R)-9-(((2S,3R,4S,6R)-4-(Dimethylamino)-3-hydroxy-6-methyltetrahydro-2H-pyran-2-yl)oxy)-8-methoxy-4,6,8,10,12,12-hexamethyl-3-((R)-1-methylpyrrolidin-3-yl)-1-oxa-4-azacyclotridecane-11,13-dione]
4 to 32 (≈ 6.39 to 51.1 µM)	< 4	< 4	> 32	> 32	CO[C@]1(C)C[C@@H](C)CN(C)[C@@H]([C@@H]2CCN(CC(C)C)C2)COC(=O)C(C)(C)C(=O)[C@H](C)[C@H]1O[C@@H]1O[C@H](C)C[C@H](N(C)C)[C@H]1O [Compound 110, (3S,6R,8R,9R,10R)-9-(((2S,3R,4S,6R)-4-(dimethylamino)-3-hydroxy-6-methyltetrahydro-2H-pyran-2-yl)oxy)-3-((R)-1-isobutylpyrrolidin-3-yl)-8-methoxy-4,6,8,10,12,12-hexamethyl-1-oxa-4-azacyclotridecane-11,13-dione]
4 to 32 (≈ 6.54 to 52.3 µM)	< 4	< 4	> 32	4 to 32 (≈ 6.54 to 52.3 µM)	CO[C@]1(C)C[C@@H](C)CN(C)[C@H](C2CN(CC(C)C)C2)COC(=O)C(C)(C)C(=O)[C@H](C)[C@H]1O[C@@H]1O[C@H](C)C[C@H](N(C)C)[C@H]1O [Compound 112]
> 32	4 to 32 (≈ 6.69 to 53.5 µM)	> 32	> 32	> 32	CO[C@]1(C)C[C@@H](C)CN(C)[C@H]([C@@H]2CCCN(C)C2)COC(=O)C(C)(C)C(=O)[C@H](C)[C@H]1O[C@@H]1O[C@H](C)C[C@H](N(C)C)[C@H]1O [Compound 113, (3R,6R,8R,9R,10R)-9-(((2S,3R,4S,6R)-4-(dimethylamino)-3-hydroxy-6-methyltetrahydro-2H-pyran-2-yl)oxy)-8-methoxy-4,6,8,10,12,12-hexamethyl-3-((R)-1-methylpiperidin-3-yl)-1-oxa-4-azacyclotridecane-11,13-dione]
4 to 32 (≈ 6.39 to 51.1 µM)	< 4	< 4	> 32	> 32	CO[C@]1(C)C[C@@H](C)CN(C)[C@@H](C2CCN(C(C)C)CC2)COC(=O)C(C)(C)C(=O)[C@H](C)[C@H]1O[C@@H]1O[C@H](C)C[C@H](N(C)C)[C@H]1O [Compound 116, (3S,6R,8R,9R,10R)-9-(((2S,3R,4S,6R)-4-(dimethylamino)-3-hydroxy-6-methyltetrahydro-2H-pyran-2-yl)oxy)-3-(1-isopropylpiperidin-4-yl)-8-methoxy-4,6,8,10,12,12-hexamethyl-1-oxa-4-azacyclotridecane-11,13-dione]
> 32	4 to 32 (≈ 6.54 to 52.3 µM)	4 to 32 (≈ 6.54 to 52.3 µM)	> 32	> 32	CCN1CCC[C@@H]([C@@H]2COC(=O)C(C)(C)C(=O)[C@H](C)[C@@H](O[C@@H]3O[C@H](C)C[C@H](N(C)C)[C@H]3O)[C@](C)(OC)C[C@@H](C)CN2C)C1 [Compound 117, (3R,6R,8R,9R,10R)-9-(((2S,3R,4S,6R)-4-(dimethylamino)-3-hydroxy-6-methyltetrahydro-2H-pyran-2-yl)oxy)-3-((R)-1-ethylpiperidin-3-yl)-8-methoxy-4,6,8,10,12,12-hexamethyl-1-oxa-4-azacyclotridecane-11,13-dione]
4 to 32 (≈ 6.25 to 50 µM)	< 4	< 4	> 32	> 32	CO[C@]1(C)C[C@@H](C)CN(C)[C@H](C2CCN(CC(C)C)CC2)COC(=O)C(C)(C)C(=O)[C@H](C)[C@H]1O[C@@H]1O[C@H](C)C[C@H](N(C)C)[C@H]1O [Compound 121, (3R,6R,8R,9R,10R)-9-(((2S,3R,4S,6R)-4-(dimethylamino)-3-hydroxy-6-methyltetrahydro-2H-pyran-2-yl)oxy)-3-(1-isobutylpiperidin-4-yl)-8-methoxy-4,6,8,10,12,12-hexamethyl-1-oxa-4-azacyclotridecane-11,13-dione]
4 to 32 (≈ 6.39 to 51.1 µM)	< 4	4 to 32 (≈ 6.39 to 51.1 µM)	> 32	> 32	CO[C@]1(C)C[C@@H](C)CN(C)[C@H]([C@@H]2CCN(CC(C)C)C2)COC(=O)C(C)(C)C(=O)[C@H](C)[C@H]1O[C@@H]1O[C@H](C)C[C@H](N(C)C)[C@H]1O [Compound 123, (3R,6R,8R,9R,10R)-9-(((2S,3R,4S,6R)-4-(dimethylamino)-3-hydroxy-6-methyltetrahydro-2H-pyran-2-yl)oxy)-3-((R)-1-isobutylpyrrolidin-3-yl)-8-methoxy-4,6,8,10,12,12-hexamethyl-1-oxa-4-azacyclotridecane-11,13-dione]
